Results published in patent US20090318555A1, “Treatment of Vertigo with Acetyl-L-Leucine” (PIERRE FABRE MEDICAMENT, priority 2006, published 2009).

How the values were obtained:
[1] = test system: postural and kinetic deficit compensation in lesioned cat; details: both after IV 28 mg/kg first three days post-lesion and after (IO) 28 mg/kg first 30 days postoperative, vs untreated lesioned animals; cited from earlier work
[2] = test system: unilateral vestibular neurectomy model in the cat; assay: Support polygon surface area (postural syndrome), Example 1; type: in vivo; details: for return of support polygon surface area to normal / support polygon surface area compared to control animals: 15 mg/kg/day IV 3 days then 30 mg/kg/day oral; for support polygon surface area compared to control animals: post-lesion (D isomer: two days post-lesion and evolution)
Experimental: The cats undergo a unilateral vestibular neurectomy on the left side. Surgery is performed using a surgical microscope, under rigorously aseptic conditions, according to a translabyrinthine approach. After incision of the tissues located behind the left auricle of the animal, an opening is made in the tympanic bulla using a diamond drill to give access to the inner ear. The labyrinth cavity is approached by an opening created above the oval window. This precisely-made opening exposes cranial […] which are sectioned at the postganglionic level. The internal auditory meatus is obturated with a cicatrizing gelatin sponge and the surface tissues are restitched. The animals are given analgesics for 48 hours and antibiotics for five days postoperative. The animals are divided into four groups comprising three treatment groups and one untreated control group, as follows: • control group (five cats), untreated after vestibular lesion but receiving a placebo, • experimental group one (four cats), treated with the racemic compound (acetyl-DL-leucine), • experimental group two (four cats), treated with the first enantiomer (acetyl-L-leucine), • experimental group three (four cats), treated with the second enantiomer (acetyl-D-leucine). Pharmacological treatments for experimental groups one, two and three begin on the day of the lesion and continue until complete recovery (45 days for untreated control animals). In these three lesioned groups, treatment is administered by intravenous (IV) route during the first three days post-lesion and is followed by oral route (OR) treatment until recovery is complete. The doses administered are 30 mg/kg/day IV then 60 mg/kg/day OR for the racemate, and 15 mg/kg/day IV then 30 mg/kg/day OR for each of the two enantiomers. For the oral route, the substance is mixed with food; for the IV route, injection takes place after local anesthesia. Support polygon surface area is a good indicator of the degree of postural stability in the cat. In general, it is quite small in the normal animal (roughly 50 cm^2). It increases considerably, by four to eight times, after a unilateral vestibular lesion. This increase in polygon surface area reflects tonic asymmetries in the extensor and flexor muscles of the fore and hind feet and the loss of certain static equilibrium reflexes (Magnus reflexes, for example). Thus, postoperative evolution of this indicator is a good measure of the animal's static equilibrium capacity. In addition, this indicator has prognostic value with respect to dynamic equilibrium performance, as measured by the rotating beam test. Support polygon surface area measurements are taken with the animal in an upright position on all four legs, at rest, using an automated three-dimensional movement analysis system with virtual markers (Codamotion optoelectronic system coupled with a SIMI alignment device). Surface area measurements (in cm^2) taken during the post-lesion period are standardized with respect to pre-lesion values. Thus, each animal acts as its own control (unit equivalent). This method enables direct between-group comparisons and within-group averaging.

[3] = test system: unilateral vestibular neurectomy model in the cat; assay: Post-lesion horizontal spontaneous vestibular nystagmus, Example 1; type: in vivo; details: for nystagmus disappearing / nystagmus frequency compared to control animals: 15 mg/kg/day IV 3 days then 30 mg/kg/day oral
Experimental: The cats undergo a unilateral vestibular neurectomy on the left side. Surgery is performed using a surgical microscope, under rigorously aseptic conditions, according to a translabyrinthine approach. After incision of the tissues located behind the left auricle of the animal, an opening is made in the tympanic bulla using a diamond drill to give access to the inner ear. The labyrinth cavity is approached by an opening created above the oval window. This precisely-made opening exposes cranial […] which are sectioned at the postganglionic level. The internal auditory meatus is obturated with a cicatrizing gelatin sponge and the surface tissues are restitched. The animals are given analgesics for 48 hours and antibiotics for five days postoperative. The animals are divided into four groups comprising three treatment groups and one untreated control group, as follows: • control group (five cats), untreated after vestibular lesion but receiving a placebo, • experimental group one (four cats), treated with the racemic compound (acetyl-DL-leucine), • experimental group two (four cats), treated with the first enantiomer (acetyl-L-leucine), • experimental group three (four cats), treated with the second enantiomer (acetyl-D-leucine). Pharmacological treatments for experimental groups one, two and three begin on the day of the lesion and continue until complete recovery (45 days for untreated control animals). In these three lesioned groups, treatment is administered by intravenous (IV) route during the first three days post-lesion and is followed by oral route (OR) treatment until recovery is complete. The doses administered are 30 mg/kg/day IV then 60 mg/kg/day OR for the racemate, and 15 mg/kg/day IV then 30 mg/kg/day OR for each of the two enantiomers. For the oral route, the substance is mixed with food; for the IV route, injection takes place after local anesthesia. Recovery of oculomotor functioning is quantified by measuring post-operative regression of spontaneous vestibular nystagmus to light. This nystagmus is recorded in the horizontal plane by a video camera system that records eye movements (SIMI system). Nystagmus frequency is determined by the number of beats per unit time (10 seconds). Recordings are made daily until spontaneous nystagmus disappears.

[4] = test system: unilateral vestibular neurectomy model in the cat; assay: Kinetic equilibrium functioning, rotating beam test, Example 1; type: in vivo; details: for compensation for kinetic equilibrium compared to control animals / return to maximum performance (MP): rotating beam, 15 mg/kg/day IV 3 days then 30 mg/kg/day oral
Experimental: The cats undergo a unilateral vestibular neurectomy on the left side.
Surgery is performed using a surgical microscope, under rigorously aseptic conditions, according to a translabyrinthine approach. After incision of the tissues located behind the left auricle of the animal, an opening is made in the tympanic bulla using a diamond drill to give access to the inner ear. The labyrinth cavity is approached by an opening created above the oval window. This precisely-made opening exposes cranial […] which are sectioned at the postganglionic level. The internal auditory meatus is obturated with a cicatrizing gelatin sponge and the surface tissues are restitched. The animals are given analgesics for 48 hours and antibiotics for five days postoperative.
The animals are divided into four groups comprising three treatment groups and one untreated control group, as follows: • control group (five cats), untreated after vestibular lesion but receiving a placebo, • experimental group one (four cats), treated with the racemic compound (acetyl-DL-leucine), • experimental group two (four cats), treated with the first enantiomer (acetyl-L-leucine), • experimental group three (four cats), treated with the second enantiomer (acetyl-D-leucine).
Pharmacological treatments for experimental groups one, two and three begin on the day of the lesion and continue until complete recovery (45 days for untreated control animals). In these three lesioned groups, treatment is administered by intravenous (IV) route during the first three days post-lesion and is followed by oral route (OR) treatment until recovery is complete. The doses administered are 30 mg/kg/day IV then 60 mg/kg/day OR for the racemate, and 15 mg/kg/day IV then 30 mg/kg/day OR for each of the two enantiomers. For the oral route, the substance is mixed with food; for the IV route, injection takes place after local anesthesia.
The rotating beam test, as described by Xerri and Lacour (Xerri C, Lacour M: Compensation for postural and kinetic deficits following unilateral vestibular neurectomy in the cat. Role of sensory-motor activity [Compensation des déficits posturaux et cinétiqtues après neurectomie vestibulaire unilatérale chez le chat. Rôle de l'activité sensori-motrice], Acta Otolaryngol (Stockh) (1980) [in French], 90, 414-424) makes it possible to quantify kinetic equilibrium functioning deficits and recovery as a function of postoperative time.
Two compartments are connected by a cylindrical beam 3 m in length and 12 cm in diameter, placed 1.2 m above the floor. The beam can turn around its central axis with linear tangential velocities varying from 0 m/min to 37 m/min. Before the unilateral vestibular lesion (preoperative period), the cats are conditioned to move along this beam. Their maximum performance (MP), which corresponds to the highest beam rotation velocity not causing the animal to fall, is determined for four consecutive tests. In general, eight to 12 daily training sessions of approximately one hour are adequate for the animal to reach its MP. Inter-animal MP variations are relatively small (extreme values recorded: 27 m/min to 37 m/min; mean: 33 m/min; standard deviation: 2.08 m/min). For each cat, MP values obtained following unilateral vestibular neurectomy are expressed as a percentage of MP recorded at the end of training during the preoperative period.

[5] = test system: unilateral vestibular neurectomy model; assay: Overall functional restoration in animals having undergone unilateral vestibular neurectomy; type: in vivo, cat; details: present experimental model
Text: The selected experimental model and protocol are recognized in the field of neurosensory research as targeting the study of disorders associated with vertigo crises. The cats undergo a unilateral vestibular neurectomy on the left side. The animals are divided into four groups comprising three treatment groups and one untreated control group, as follows: • control group (five cats), untreated after vestibular lesion but receiving a placebo, • experimental group one (four cats), treated with the racemic compound (acetyl-DL-leucine), • experimental group two (four cats), treated with the first enantiomer (acetyl-L-leucine), • experimental group three (four cats), treated with the second enantiomer (acetyl-D-leucine). Pharmacological treatments for experimental groups one, two and three begin on the day of the lesion and continue until complete recovery (45 days for untreated control animals). In these three lesioned groups, treatment is administered by intravenous (IV) route during the first three days post-lesion and is followed by oral route (OR) treatment until recovery is complete. The doses administered are 30 mg/kg/day IV then 60 mg/kg/day OR for the racemate, and 15 mg/kg/day IV then 30 mg/kg/day OR for each of the two enantiomers. For the oral route, the substance is mixed with food; for the IV route, injection takes place after local anesthesia.

[6] = test system: unilateral vestibular neurectomy in the cat; assay: Compensation of vestibular deficits (support polygon), Example 2; type: in vivo; details: IV during first three days post-lesion
Experimental: The experiment involves 18 cats from the breeder IFA-CREDO (France). The cats undergo a unilateral vestibular neurectomy of the left side, as in example 1. The animals are divided into three groups comprising one group treated with racemic coumpound (acetyl-DL-leucine) (groups 1) and two treated with acetyl-L-leucine (groups 2 and 3), as follows: • experimental group one (six cats), treated after vestibular lesion with the racemic compound (acetyl-DL-leucine) at 30 mg/kg per day, • experimental group two (six cats), treated after vestibular lesion with the L enantiomer (acetyl-L-leucine) at 15 mg/kg per day, • experimental group three (six cats), treated after vestibular lesion with the L enantiomer (acetyl-L-leucine) at 7.5 mg/kg per day, Pharmacological treatments for experimental groups 1 to 3 begin on the day of the lesion. Treatment is administered by intravenous (IV) route during the first three days post-lesion.

[7] = cat, 15 mg/kg/day IV then 30 mg/kg/day oral
[8] = acetyl-L-leucine used in a 1/2 dose of the racemate

SMILES | shortening of the vestibular compensation time constant [1] | return of support polygon surface area to normal ([2]; cat) | support polygon surface area compared to control animals ([2]; cat) | beneficial effect on support polygon parameter [2, 7] | nystagmus disappearing ([3]; cat) | nystagmus frequency compared to control animals ([3]; cat) | beneficial effect on nystagmus parameter [3, 7] | beneficial effect on kinetic equilibrium parameter [4, 7] | compensation for kinetic equilibrium compared to control animals ([4]; cat) | return to maximum performance (MP) ([4]; cat) | improvement / restorative activity compared to placebo [5] | activity on compensation for postural deficits relative to acetyl-DL-leucine [2, 8] | activity on compensation for ocular nystagmus relative to acetyl-DL-leucine [3, 8] | activity on compensation for kinetic equilibrium relative to acetyl-DL-leucine [4, 8] | restoration of postural, locomotor and oculomotor functions deteriorated by a vestibular lesion [6]
CC(=O)NC(CC(C)C)C(=O)O (racemic) [acetyl-DL-leucine] | 50% |  |  |  |  |  |  |  |  |  |  |  |  |  | 
CC(=O)N[C@H](CC(C)C)C(=O)O [acetyl-D-leucine] |  | 40 days post-lesion | identical to that observed in the control animals | does not have any beneficial effect | eight | identical to that of nystagmus observed in the control animals | does not have any beneficial effect | does not have any beneficial effect | identical to that observed in the control animals | 42 days post-lesion | does not provide any improvement compared to a placebo |  |  |  | 
CC(=O)N[C@@H](CC(C)C)C(=O)O [acetyl-L-leucine] |  | 16 days post-lesion | significantly smaller |  | four | lower |  |  | much more rapid than in the control animals | 18 days post-lesion | restorative activity is only provided by the acetyl-L-leucine isomer | greater than or equal to that of acetyl-DL-leucine | greater than or equal to that of acetyl-DL-leucine | greater than or equal to that of acetyl-DL-leucine | efficiently restore
